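A five-concentration, 48-hour dose response in 96-well plates underlies each endpoint, interpolated linearly between surrounding concentrations. The concentration for full growth arrest is given as TGI.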
Tests used:
Experiment in all cases: inhibition of tumour cell growth, NCI panel, 48 h
HT29 colon = tested on: HT29 colon
ACHN renal = tested on: ACHN renal
CAKI-1 renal = tested on: CAKI-1 renal
U251 CNS = tested on: U251 CNS
A549 NSCLC = tested on: A549 NSCLC
SNB-19 CNS = tested on: SNB-19 CNS
HOP-92 NSCLC = tested on: HOP-92 NSCLC
EKVX NSCLC = tested on: EKVX NSCLC
MDA-N = tested on: MDA-N
HCT-116 colon = tested on: HCT-116 colon
SK-MEL-28 melanoma = tested on: SK-MEL-28 melanoma
SK-MEL-2 melanoma = tested on: SK-MEL-2 melanoma
SW-620 colon = tested on: SW-620 colon
UO-31 renal = tested on: UO-31 renal
RXF 393 renal = tested on: RXF 393 renal
HCC-2998 colon = tested on: HCC-2998 colon
CCRF-CEM leukemia = tested on: CCRF-CEM leukemia
K-562 leukemia = tested on: K-562 leukemia
MDA-MB-231 breast = tested on: MDA-MB-231 breast
SF-539 CNS = tested on: SF-539 CNS
PC-3 prostate = tested on: PC-3 prostate
OVCAR-3 ovarian = tested on: OVCAR-3 ovarian
TK-10 renal = tested on: TK-10 renal
MOLT-4 leukemia = tested on: MOLT-4 leukemia
NCI-H226 lung = tested on: NCI-H226 lung
OVCAR-5 ovarian = tested on: OVCAR-5 ovarian
DU-145 prostate = tested on: DU-145 prostate
T-47D breast = tested on: T-47D breast
HOP-62 NSCLC = tested on: HOP-62 NSCLC
IGROV1 ovarian = tested on: IGROV1 ovarian
SN12C renal = tested on: SN12C renal
OVCAR-4 ovarian = tested on: OVCAR-4 ovarian
M14 melanoma = tested on: M14 melanoma
786-0 renal = tested on: 786-0 renal
NCI-H23 lung = tested on: NCI-H23 lung
MALME-3M melanoma = tested on: MALME-3M melanoma
A498 renal = tested on: A498 renal
SF-295 CNS = tested on: SF-295 CNS
NCI/ADR-RES ovarian = tested on: NCI/ADR-RES ovarian
MCF7 breast = tested on: MCF7 breast
MDA-MB-435 = tested on: MDA-MB-435
NCI-H460 lung = tested on: NCI-H460 lung
OVCAR-8 ovarian = tested on: OVCAR-8 ovarian
KM12 colon = tested on: KM12 colon
RPMI-8226 leukemia = tested on: RPMI-8226 leukemia
HCT-15 colon = tested on: HCT-15 colon
SR leukemia = tested on: SR leukemia
SNB-75 CNS = tested on: SNB-75 CNS
UACC-62 melanoma = tested on: UACC-62 melanoma
UACC-257 melanoma = tested on: UACC-257 melanoma
HL-60(TB) leukemia = tested on: HL-60(TB) leukemia
LOX IMVI melanoma = tested on: LOX IMVI melanoma
HS 578T breast = tested on: HS 578T breast
COLO 205 colon = tested on: COLO 205 colon
SF-268 CNS = tested on: SF-268 CNS
SK-OV-3 ovarian = tested on: SK-OV-3 ovarian

Measured: TGI

Oc1oc(-c2ccccc2)nc1/C=C1/C=NN=N1
> 100 µM: all assays above

Source: PubChem BioAssay (NCI)
